Results published in patent US20210355104A1, “ADENOSINE RECEPTOR BINDING COMPOUNDS” (Nikang Therapeuticsm Inc., priority 2018, published 2021).
Several values for one entry are separate records, joined by “and”; a condition that tells them apart may be missing. Equal entries are not always repeated.

Molecular target: Adenosine A2A receptor (Homo sapiens, UniProt P29274)
Experiment: cAMP assay in 293A cells stably expressing the adenosine A2A receptor (CGS21680 stimulation, HTRF)
Format: cell-based
Design: expressed in transfected cells; host or cells: 293A cells (Invitrogen, Cat# R705-07) infected with A2A-expressing lentivirus (custom packaged by Biosettia), puromycin selected
Settings: 293A cells stably expressing A2A receptor; 0.1% BSA; 1 uM CGS21680 stimulation; replicate values separated by /; read-out: cAMP (nM) 0.1% BSA, 1 uM CGS
Procedure: A 293A cell line (Invitrogen, Cat# R705-07) stably expressing the adenosine A2A receptor was generated in house. Briefly, 293A cells were seeded in 6-well plate and infected with A2A expressing lentivirus (custom packaged by Biosettia) and selected with puromycin (1 ug/ml). Cells survived selection were confirmed for A2A expression by RT-qPCR (RT Reagent: High-Capacity cDNA Reverse Transcription Kit, Applied Biosystems/Thermo Fisher Cat# 4368814, qPCR reagent: SYBR™ Green Master Mix, Applied Biosystems/Thermo Fisher Cat# 4309155). The cells were maintained in DMEM/F12 medium containing 10% FBS, 100 units/ml Penicillin, 100 μg/ml Streptomycin, and 1 μg/ml puromycin at 37° C., 5% CO2. 293A-A2AR cells were harvested on the day of assay and resuspended at 0.6 million cells/ml in DMEM/F12 with 0.1% BSA and 30 U/ml denosine deaminase(Roche, Cat #: 10102121001). Serial dilutions of compounds were prepared in DMEM/F12 with 0.1% BSA to a DMSO concentration of 0.6%. After 4 μl of compound dilutions were added, 4 μl suspended cells were dispensed into low-volume white 384-well plates (Greiner Bio-One). […] The assay plate was then incubated at room temperature for 30 min. 3 μl of d2 conjugated cAMP and 3 μl cryptate conjugated anti-cAMP antibody were then added. D2 conjugated cAMP and cryptate conjugated anti-cAMP antibody (Cisbio, Cat #: 62AM6PEC) were both prepared in cell lysis buffer according to the manufacturer's instruction. After 1 h incubation at room temperature, plates were read in CIARIOstar plate reader (BMG Labtech) using the HTRF detection mode.

Adenosine A2A receptor, sequence (P29274 whole entry): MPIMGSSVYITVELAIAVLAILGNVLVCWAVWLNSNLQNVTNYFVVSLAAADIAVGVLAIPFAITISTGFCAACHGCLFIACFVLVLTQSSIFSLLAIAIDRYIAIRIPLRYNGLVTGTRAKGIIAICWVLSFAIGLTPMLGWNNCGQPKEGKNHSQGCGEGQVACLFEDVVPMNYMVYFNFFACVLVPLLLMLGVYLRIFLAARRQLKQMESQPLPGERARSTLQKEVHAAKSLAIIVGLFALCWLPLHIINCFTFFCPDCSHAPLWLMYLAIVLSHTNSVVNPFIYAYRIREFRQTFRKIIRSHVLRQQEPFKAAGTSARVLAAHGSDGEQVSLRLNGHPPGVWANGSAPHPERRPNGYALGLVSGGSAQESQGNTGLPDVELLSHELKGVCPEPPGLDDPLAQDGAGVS

Q: Which IC50 does the source give for Cc1cc(-c2c(OCc3cc(-c4nn[nH]n4)cc(C(C)(C)O)n3)nc(N)nc2-c2ccc(F)cc2)cc(C(F)F)n1 [Example 441, 2-(6-(((2-amino-5-(2-(difluoromethyl)-6-methylpyridin-4-yl)-6-(4-fluorophenyl)pyrimidin-4-yl)oxy)methyl)-4-(2H-tetrazol-5-yl)pyridin-2-yl)propan-2-ol] here?
A: Its IC50 is greater than 3000 nM.

Same assay, conditions: 293A-A2AR cells, 0.1% BSA, 1 uM CGS; read-out: cAMP (nM) 0.1% BSA, 1 uM CGS

Q: Cc1cc(-c2c(OCc3nc4ccc(C(C)(C)C(=O)O)cc4n3C)nc(N)nc2-c2ccc(F)cc2)cc(C(F)F)n1 [Example 368, 2-(2-(((2-amino-5-(2-(difluoromethyl)-6-methylpyridin-4-yl)-6-(4-fluorophenyl)pyrimidin-4-yl)oxy)methyl)-1-methyl-1H-benzo[d]imidazol-6-yl)-2-methylpropanoic acid] was tested. Which IC50 did it give?
A: Its IC50 is greater than 25000 nM.

Q: How did the IC50 turn out when CCc1nn(C[C@@H](O)CO)nc1COc1nc(N)nc(-c2ccc(F)cc2)c1-c1cc(C)nc(C(F)F)c1 [Example 288, (R)-3-(4-(((2-amino-5-(2-(difluoromethyl)-6-methylpyridin-4-yl)-6-(4-fluorophenyl)pyrimidin-4-yl)oxy)methyl)-5-ethyl-2H-1,2,3-triazol-2-yl)propane-1,2-diol] was run?
A: The IC50 was 2390 nM.

Q: With Cc1cc(-c2c(OCc3nc4cc(C(C)(C)O)ccc4n3C)nc(N)nc2-c2ccc(F)cc2)cc(C(F)F)n1 [Example 357, 2-(2-(((2-amino-5-(2-(difluoromethyl)-6-methylpyridin-4-yl)-6-(4-fluorophenyl)pyrimidin-4-yl)oxy)methyl)-1-methyl-1H-benzo[d]imidazol-5-yl)propan-2-ol] as the compound, how does the IC50 read?
A: The IC50 was 3910 nM and 3930 nM.

Q: Cc1cc(-c2c(OCCOc3cccc(CO)n3)nc(N)nc2-c2ccc(F)cc2)cc(C(F)F)n1 [Example 304, (6-(2-((2-amino-5-(2-(difluoromethyl)-6-methylpyridin-4-yl)-6-(4-fluorophenyl)pyrimidin-4-yl)oxy)ethoxy)pyridin-2-yl)methanol] was tested. Which IC50 did it give?
A: The IC50 was 681 nM.

Q: With Cc1cc(-c2c(OCCC(C)(C)C(=O)O)nc(N)nc2-c2cccc(C#N)c2C)cc(C(F)F)n1 [Example 250, 4-((2-amino-6-(3-cyano-2-methylphenyl)-5-(2-(difluoromethyl)-6-methylpyridin-4-yl)pyrimidin-4-yl)oxy)-2,2-dimethylbutanoic acid] as the compound, how does the IC50 read?
A: Its IC50 is 8570 nM.

Q: How did the IC50 turn out when Cc1cc(-c2c(OCc3cccc(N4CC[C@H](C(=O)O)C4)n3)nc(N)nc2-c2ccc(F)cc2)cc(C(F)F)n1 [Example 309, (S)-1-(6-(((2-amino-5-(2-(difluoromethyl)-6-methylpyridin-4-yl)-6-(4-fluorophenyl)pyrimidin-4-yl)oxy)methyl)pyridin-2-yl)pyrrolidine-3-carboxylic acid] was run?
A: The IC50 was 1370 nM.

Q: With Cc1cc(-c2c(OCCN(C)c3cccnn3)nc(N)nc2-c2cccc(C#N)c2C)cc(C(F)F)n1 [Example 246, 3-(2-amino-5-(2-(difluoromethyl)-6-methylpyridin-4-yl)-6-(2-(methyl(pyridazin-3-yl)amino)ethoxy)pyrimidin-4-yl)-2-methylbenzonitrile] as the compound, how does the IC50 read?
A: Its IC50 is 981 nM.

Q: Which IC50 does the source give for Cc1cc(-c2c(OCc3nncn3CC3CC3)nc(N)nc2-c2ccc(F)cc2)cc(C(F)F)n1 [Example 234] here?
A: Its IC50 is 647 nM.

Q: Which IC50 does the source give for Cc1cc(-c2c(OCc3nc4ccc(C(C)(C)O)cc4n3C)nc(N)nc2-c2ccc(F)cc2)cc(C(F)F)n1 [Example 358, 2-(2-(((2-amino-5-(2-(difluoromethyl)-6-methylpyridin-4-yl)-6-(4-fluorophenyl)pyrimidin-4-yl)oxy)methyl)-1-methyl-1H-benzo[d]imidazol-6-yl)propan-2-ol] here?
A: The IC50 was 940 nM and 1060 nM.

Q: CCc1nnn(CC)c1COc1nc(N)nc(-c2cccc(C#N)c2C)c1-c1cc(C)nc(C(F)F)c1 [Example 255, 3-(2-amino-6-((1,4-diethyl-1H-1,2,3-triazol-5-yl)methoxy)-5-(2-(difluoromethyl)-6-methylpyridin-4-yl)pyrimidin-4-yl)-2-methylbenzonitrile] was tested. Which IC50 did it give?
A: The IC50 was greater than 25000 nM.
